Results taken from patent US20220323427A1, “SOMATOSTATIN RECEPTOR TYPE 5 AGONIST FOR THE TREATMENT OF HYPERINSULINISM” (Crinetics Pharmaceuticals, Inc., priority 2021, published 2022).

Legend:
[1] = target: T1, human somatostatin receptor subtype 5 (Homo sapiens, UniProt P35346); experiment: cAMP assay for SST5R; format: cell-based
T1 construct: expressed in transfected cells
Text: General overview: All five SSTR subtypes are Gi coupled G-protein coupled receptors (GPCRs) that lead to decreases in intracellular cyclic AMP (cAMP) when activated by an agonist. Therefore, measurement of intracellular cAMP levels can be used to assess whether compounds of the invention are agonists of SSTR subtypes (John Kelly, Troy Stevens, W. Joseph Thompson, and Roland Seifert, Current Protocols in Pharmacology, 2005, 2.2.1-2.2). One example of an intracellular cAMP assay is described below.
Four days prior to the assay, 2,000 Chinese hamster ovary cells (CHO-K1, ATCC #CCL-61) stably expressing the human somatostatin receptor subtype 5 are plated in each well of a 96-well tissue culture-treated plate in Ham's F12 growth media (ThermoFisher #10-080-CM) supplemented with 10% donor bovine serum (Gemini Bio-Products #100-506), 100 U/mL penicillin; 100 μg/mL streptomycin; 2 mM L-glutamine (Gemini Bio-Products #400-110) and 0.25 mg/mL G418 Sulfate (GoldBio #108321-42-2). The cells are cultured at 37° C., 5% CO2 and 95% humidity. […] The time-resolved fluorescent signal is read with a Tecan M1000Pro multiplate reader. The intracellular cAMP concentrations are calculated by regression to a standard curve and are plotted vs. the concentration of the compounds of the invention and the EC50 of the compounds are calculated using standard methods. […]

[2] = tested on: sulfonylurea-induced hyperinsulinism; experiment: Sulfonylurea (glibenclamide) challenge and euglycemic clamp, SAD; format: in vivo, human; settings: single dose 30 mg or 60 mg
Procedure: SAD 1b/Part 1b: ascending single dose, randomized, placebo-controlled, double-blind; up to 3 cohorts, n=8/cohort; subjects in SAD 1b will undergo an SU challenge and euglycemic clamp procedure. Doses are 30 mg or 60 mg.
In SAD 1b and the MAD, subjects will undergo an SU challenge in the setting of a euglycemic clamp procedure. Sulfonylurea drugs act to close KATP channel of the pancreatic β-cell, stimulating endogenous insulin secretion. Given that the majority (50%) of patients with congenital HI harbor a mutation in the KATP channel, the SU challenge models this genetic form of HI in healthy volunteers. Intravenous glucose will be used during the euglycemic clamp to maintain glucose within a target range. […] The SU challenge cohorts in SAD 1b will assess the ability of a single dose of Compound 1 to reduce or prevent SU-induced glucose lowering as measured by reduced IV glucose infusion (reduced glucose “support”). IV glucose requirements will be assessed as a glucose infusion rate, or GIR (mg dextrose/kg body weight/minute). In the MAD, the durability of the Compound 1 effect will be measured by assessing the GIR required to maintain euglycemia during the SU challenge after 10 days of Compound 1 dosing compared to the baseline SU challenge in the absence (predose) of Compound 1. […]

[3] = tested on: sulfonylurea-induced hyperinsulinism; experiment: Sulfonylurea (glibenclamide) challenge and euglycemic clamp, MAD; format: in vivo, human
Procedure: MAD/Part 2: multiple ascending dose, randomized, placebo-controlled, double-blind; up to 5 cohorts, n=9/cohort; subjects in MAD will receive Compound 1 or the placebo. Subjects will undergo a mixed meal tolerance test (MMTT) and an SU challenge and euglycemic clamp procedure. The doses will not exceed the doses in the SAD. Doses will escalate from 30 mg to 120 mg.
In SAD 1b and the MAD, subjects will undergo an SU challenge in the setting of a euglycemic clamp procedure. Sulfonylurea drugs act to close KATP channel of the pancreatic β-cell, stimulating endogenous insulin secretion. Given that the majority (50%) of patients with congenital HI harbor a mutation in the KATP channel, the SU challenge models this genetic form of HI in healthy volunteers. Intravenous glucose will be used during the euglycemic clamp to maintain glucose within a target range. In the presence of an SU, the amount of intravenous (IV) glucose required to maintain a target glucose will increase, similar to patients with congenital HI who require supplemental glucose. The SU challenge cohorts in SAD 1b will assess the ability of a single dose of Compound 1 to reduce or prevent SU-induced glucose lowering as measured by reduced IV glucose infusion (reduced glucose “support”). IV glucose requirements will be assessed as a glucose infusion rate, or GIR (mg dextrose/kg body weight/minute). In the MAD, the durability of the Compound 1 effect will be measured by assessing the GIR required to maintain euglycemia during the SU challenge after 10 days of Compound 1 dosing compared to the baseline SU challenge in the absence (predose) of Compound 1.
Glibenclamide will be used for SU-induced hypoglycemia. Based on the available dose-response data in healthy volunteers, 5 mg of glibenclamide will be orally administered to healthy volunteers in selected single- and multi-dose cohorts. The risk of hypoglycemia due to overdose is negligible because continuous glucose monitoring by a clamp device will be performed for each subject and IV infusion of glucose will be provided to maintain each subject's baseline glucose levels.
The euglycemic glucose clamp will be performed by means of a glucose clamp device (ClampArt®; Profil Institut für Stoffwechselforschung, Neuss, Germany). The subject will be connected to the clamp device that will monitor the subject's PG continuously. The device will calculate aggregated PG values every minute. Based on these values, GIR will be calculated every minute using the algorithm implemented into the device and glucose will be administered automatically by the device to keep the PG concentration of the subject constant at a pre-determined target level. Approximately 2 mL of blood per hour will be sampled for glucose monitoring by ClampArt®/the clamp device. […]

[4] = after 10 days of 30, 60 or 120 mg QD

T1 sequence (P35346 whole entry): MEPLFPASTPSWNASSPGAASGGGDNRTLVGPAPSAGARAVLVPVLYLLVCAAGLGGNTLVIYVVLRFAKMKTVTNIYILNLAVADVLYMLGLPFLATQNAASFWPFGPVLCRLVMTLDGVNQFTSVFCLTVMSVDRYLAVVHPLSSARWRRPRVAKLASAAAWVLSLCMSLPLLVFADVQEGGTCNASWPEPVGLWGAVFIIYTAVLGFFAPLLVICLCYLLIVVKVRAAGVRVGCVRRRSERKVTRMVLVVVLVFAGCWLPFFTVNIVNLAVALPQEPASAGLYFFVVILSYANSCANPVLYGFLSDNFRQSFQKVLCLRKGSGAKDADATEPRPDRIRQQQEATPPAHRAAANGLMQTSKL

Question: C[C@H](NC(=O)c1cnc(C#N)c(-c2cc(F)cc(F)c2)c1N1CC[C@H](N)C1)C(F)(F)F [Compound 1, 4-[(3S)-3-aminopyrrolidin-1-yl]-6-cyano-5-(3,5-difluorophenyl)-N-[(2S)-1,1,1-trifluoropropan-2-yl]pyridine-3-carboxamide] was tested. Which “Fold selectivity for SST5 vs SST2” value ([1]; human SST5 vs human SST2, cAMP) did it give?
Answer: >500 fold

Question: And the EC50 ([1]; inhibition of cAMP, CHO-K1 cells expressing human SST5, read-out: SST5 potency (EC50; nM))?
Answer: < 1 nM

Question: And the “Effect on sulfonylurea-induced hyperinsulinism” value [2]?
Answer: reversed sulfonylurea-induced hyperinsulinism

Question: What about the “Need for IV glucose support (glucose infusion rate)” value [2] of the same compound?
Answer: eliminating the need for IV glucose support

Question: What about the “Plasma glucose during sulfonylurea challenge” value ([3]; 120 mg cohort, Day 10) of the same compound?
Answer: mild elevation of plasma glucose

Question: And the “Effect on sulfonylurea-induced hyperinsulinism” value [3, 4]?
Answer: reversed sulfonylurea-induced hyperinsulinism

Question: What about the “Need for IV glucose support (glucose infusion rate)” value [3, 4] of the same compound?
Answer: eliminating the need for IV glucose support

Question: What about the “Insulin and C-peptide levels during sulfonylurea challenge” value ([3]; day 10, all cohorts) of the same compound?
Answer: suppressed
